Literature values in patent US5565430A, “Azaaspartic acid analogs as interleukin-1β converting enzyme inhibitors” (Sterling Winthrop Inc., priority 1994, dated 1996).

B1: Soluble IL-1 receptor: Soluble IL-1 receptor (protein, UniProt P14778 18-336, looked up)
extracellular domain: LEADKCKEREEKIILVSSANEIDVRPCPLNPNEHKGTITWYKDDSKTPVSTEQASRIHQHKEKLWFVPAKVEDSGHYYCVVRNSSYCLRIKISAKFVENEPNLCYNAQAIFKQKLPVAGDGGLVCPYMEFFKNENNELPKLQWYKDCKPLLLDNIHFSGVKDRLIVMNVAEKHRGNYTCHASYTYLGKQYPITRVIEFITLEENKPTRPVIVSPANETMEVDLGSQIQLICNVTGQLSDIAYWKWNGSVIDEDDPVLGEDYYSVENPANKRRSTLITVLNISEIESRFYKHPFTCFAKNTHGIDAAYIQLIYPVTNFQK
modifications: extracellular domain

Tests used:
[1] = test system: patients with rheumatoid arthritis; details: subcutaneous, open-label
[2] = test system: rabbit immune complex colitis; details: animal model of colitis
[3] = test system: chronic myelogenous leukemia cells; details: cells removed from leukemia patients
[4] = test system: PG-APS model of arthritis in rats
[5] = test system: patients with active rheumatoid arthritis; details: subcutaneous, after three weeks of daily treatment
allergic subjects = details: randomized, double-blind, placebo-controlled

Row | Molecule | efficacy in rheumatoid arthritis trial [1] | tissue necrosis and inflammatory cells in colon [2] | colony growth of leukemia cells [3] | joint swelling [4] | antiinflammatory activity in rheumatoid arthritis patients [5] | cutaneous late-phase allergic reaction (allergic subjects)
1 | IL-1ra: IL-1 receptor antagonist, naturally occurring | shows efficacy | reduced tissue necrosis and the number of inflammatory cells in the colon | inhibit colony growth | supresses joint swelling | – | –
2 | Antril: The IL-1 receptor antagonist, Antril (Synergen) | – | – | – | – | decrease in joint swelling and less disease activity | –
3 | B1 | – | – | inhibit colony growth | – | – | significantly reduces clinically the cutaneous late-phase allergic reaction
